In patent US6063814A, “Phorbol esters as anti-neoplastic and white blood cell elevating agents” (priority 1997, dated 2000):
“And” between values parts separate entries of the source, which are not always exact repeats. Equal entries are not always repeated.

System: leukemia (bone marrow myeloblast and promyelocyte)
Assay: Clinical treatment of leukemia patients with TPA
Assay type: in vivo, humans
Conditions: for bone marrow suppression, infection or bleeding: during and after treatment; for Spleen below the rib cage after treatment: 3 cm before
Method: The results obtained upon treatment of patients with TPA as presented in tabular form and in subsequent examples.
In the subjects identified as (1) through (5) below, chronic myelocytic leukemia had progressed to acute myelocytic leukemia before treatment with TPA.
Subject No. (1), patient No. 28879. Blood profile before TPA treatment: Hb: 28 g/L; WBC: 1.0×10^9 /L, platelet: 135×10^9 /L. Bone marrow profile before TPA treatment: myeloblast+promyelocyte: 30%. TPA treatment: 1 mg/week (0.25 mg administered four times) for two weeks. Blood profile after treatment: Hb: 86 g/L; WBC: 2.8×10^9 /L, platelet: 283×10^9 /L. Bone marrow profile after TPA treatment: myeloblast+promyelocyte: 2.5%.
Subject No. (2), patient No. 29926. Diagnosis: chronic myelocytic leukemia became acute myelocytic leukemia before treatment. Blood profile before TPA treatment: Hb: 94 g/L; WBC: 9.8×10^9 /L, platelet: 63×10^9 /L. Spleen: 3 cm below the rib cage. Bone marrow profile before TPA treatment: myeloblast+promyelocyte: 36%. TPA treatment: 1 mg/week for 5 weeks. Blood profile after treatment: Hb: 104 g/L; WBC: 4.9×10^9 /L, platelet: 80×10^9 /L. Spleen: 0.5 cm below the rib cage. Bone marrow profile after TPA treatment: myeloblast+promyelocyte: 3%.
Subject No. (3), patient No. 18102. Diagnosis: chronic myelocytic leukemia became acute myelocytic leukemia before treatment. Blood profile before TPA treatment: Hb: 70 g/L; WBC: 27.5×10^9 /L, platelet: 21×10^9 /L. Bone marrow profile before TPA treatment: myeloblast+promyelocyte: 90%. TPA treatment: 1 mg/week for 7 weeks. Blood profile after treatment: Hb: 96 g/L; WBC: 22×10^9 /L, platelet: 70×10^9 /L. Bone marrow profile after TPA treatment: myeloblast+promyelocyte: 2%.
Subject No. (4), patient No. 21315. Diagnosis: chronic myelocytic leukemia became acute myelocytic leukemia before treatment. Blood profile before TPA treatment: Hb: 87 g/L; WBC: 19×10^9 /L, platelet: 150×10^9 /L. Bone marrow profile before TPA treatment: myeloblast+promyelocyte: 67.5%. TPA treatment: 1 mg/week for 7 weeks. Blood profile after treatment: Hb: 45 g/L; WBC: 53.5×10^9 /L, platelet: 210×10^9 /L. Bone marrow profile after TPA treatment: myeloblast+promyelocyte: 4.5%.
Subject No. (5), patient No. 23965. Diagnosis: chronic myelocytic leukemia progressed to acute myelocytic leukemia. Blood profile before TPA treatment: Hb: 84 g/L; WBC: 36.6×10^9 /L, platelet: 290×10^9 /L. Bone marrow profile before TPA treatment: myeloblast+promyelocyte: 27.5%. TPA treatment: 1 mg/week for 2 weeks. Blood profile after treatment: Hb: 84 g/L; WBC: 27.3×10^9 /L, platelet: 170×10^9 /L. Bone marrow profile after TPA treatment: myeloblast+promyelocyte: 1.5%.
All the above patients had received various regimens of chemotherapy prior to the TPA treatment, including hydroxyurea, busulfan, and Ara-C, etc. but none was effective at the start of TPA treatment. Before the administration of TPA, patients received injection of 6×10^5 units of vitamin D3 (VD3)/person for 2 days; after the TPA administration, patients received i.v. infusion of 40 mg of Ara-C/d×3. […] These patients have been in clinical remission for over 6 months.
Subject No. (6), person. Diagnosed as AML-M3. Symptoms began in January, 1995. Blood profile: Hb:60 g/L, WBC: 0.4×10^9 /L, platelet: 40×10^9 /L. Bone marrow profile: myeloblast+promyelocyte: 48%. The TPA treatment period was 1 mg/week for three weeks, and 6×10^5 units VD3 /d×3 were injected prior to the treatment. […] The patient has been in remission after treatment for at least 6 months.
Subject No. (7), person. Diagnosis: MDS-REAB accompanied by an increased number of monocytes. […] The patient started to receive a combination treatment of 1,25-(OH)2 VD3 +TPA+low dose Ara-C. TPA dosage: 0.25-0.5 mg (1 mg per week) for eleven weeks. […]

[1] = subject 6, AML-M3, TPA 1 mg/week three weeks, VD3 prior
[2] = subject 7, MDS-REAB, 1,25-(OH)2 VD3+TPA+low dose Ara-C, eleven weeks
[3] = subject 7, combination with 1,25-(OH)2 VD3 and Ara-C
[4] = subject 7, combination with 1,25-(OH)2 VD3 and Ara-C, blood
[5] = subject 8, AML-M3, retinoic acid failed
[6] = subject 9, secondary aplastic anemia, TPA 0.25 mg×2
[7] = subject 10, CML, TPA 0.25 mg once
[8] = subject 10, CML, TPA 0.25 mg once, second day
[9] = subjects 1-5, VD3 before, Ara-C after TPA

## CCCCCCCCCCCCCC(=O)O[C@@H]1[C@@H](C)[C@@]2(O)[C@@H](C=C(CO)C[C@]3(O)C(=O)C(C)=C[C@@H]23)[C@@H]2C(C)(C)[C@]12OC(C)=O [TPA, Phorbol 12-Myristate-13-Acetate]
CML progressed to AML, TPA 1 mg/week for 2-7 weeks, VD3 before, Ara-C after
  Bone marrow myeloblast+promyelocyte after TPA treatment: 2.5% and 3% and 2% and 4.5% and 1.5%
Many of the patients, from first treatment
  duration of clinical remission: over six months
Refractory leukemia patients
  clinical remission: clinical remission was achieved in a relatively short time
  bone marrow suppression, infection or bleeding: no bone marrow suppression, infection or bleeding
Subject 2, TPA 1 mg/week for 5 weeks
  Spleen below the rib cage after treatment: 0.5 cm
Subject 6, AML-M3
  duration of remission: at least 6 months
  remission: met the standard for AML-M3 remission
[1]
  Bone marrow myeloblast+promyelocyte after first treatment period: 3%
  Hb after first treatment period: 118 g/L
  WBC after first treatment period: 4.1e+09 L⁻¹
  platelet after first treatment period: 8e+10 L⁻¹
[2]
  Hb after treatment: 42 g/L
  WBC after treatment: 1.02e+10 L⁻¹
  platelet after treatment: 3.4e+10 L⁻¹
  Spleen below the rib cage after treatment: 0.5 cm
[3]
  Bone marrow myeloblast after treatment: 4%
  Bone marrow promyelocyte after treatment: 6%
[4]
  Lymphocyte after treatment: 19%
  Monocyte after treatment: 1%
  Neutrophil after treatment: 80%
  Promyelocytes in blood after treatment: not detected
[5]
  WBC after TPA treatment: 2.2e+09 L⁻¹
  platelet after TPA treatment: 2.23e+11 L⁻¹
[6]
  Hb after TPA treatment: 32 g/L
  platelet after TPA treatment: 5.7e+10 L⁻¹
[7]
  Hb after treatment: 96 g/L
  WBC after treatment: 2e+09 L⁻¹
  platelet after treatment: 1.12e+11 L⁻¹
[8]
  myeloblast+promyelocyte: 4%
  myelocyte: 5%
[9]
  clinical remission in bone marrow parameters: all achieved clinical remission in bone marrow parameters in a short time
  duration of clinical remission: over 6 months
Subjects 1-5
  bone marrow suppression, infection or bleeding: no bone marrow suppression, nor infection or bleeding
